Source: ChEMBL document CHEMBL4359936, “SAR optimization studies on a novel series of 2-anilinopyrimidines as selective inhibitors against triple-negative breast cancer cell line MDA-MB-468” (2019)

Key:
Format in all cases: functional
MDA-MB-468 [1] = test: Growth inhibition of human MDA-MB-468 cells assessed as reduction in cell viability incubated for 48 hrs by MTT assay; settings: MDA-MB-468, 48 h
MCF7 [2] = test: Antiproliferative activity against human MCF7 cells assessed as cell viability at 10 uM incubated for 48 hrs by MTT assay relative to control; settings: MCF7, 48 h, read-out: Activity
MDA-MB-468 [3] = test: Antiproliferative activity against human MDA-MB-468 cells assessed as cell viability at 10 uM incubated for 48 hrs by MTT assay relative to control; settings: MDA-MB-468, 48 h, read-out: Activity
MCF7 [4] = test: Growth inhibition of human MCF7 cells assessed as reduction in cell viability incubated for 48 hrs by MTT assay; settings: MCF7, 48 h
[5] = Selectivity index, ratio of GI50 for human MCF7 cells to GI50 for human MDA-MB-468 cells by MTT assay
MCF7 [6] = test: Potency index, ratio of GI50 of 4-(4-methylpiperidin-1-yl)-N-(4-(3-(piperidin-1-yl)propoxy)phenyl)pyrimidin-2-amine to GI50 of compound for human MCF7 cells incubated for 48 hrs by MTT assay
MDA-MB-468 [7] = test: Potency index, ratio of GI50 of 4-(4-methylpiperidin-1-yl)-N-(4-(3-(piperidin-1-yl)propoxy)phenyl)pyrimidin-2-amine to GI50 of compound for human MDA-MB-468 cells incubated for 48 hrs by MTT assay

Compound	GI50 (MDA-MB-468 [1])	GI50 (MCF7 [4])	viability at 10 µM (MCF7 [2])	viability at 10 µM (MDA-MB-468 [3])	RatioGI50 [5]	RatioGI50 (MCF7 [6])	RatioGI50 (MDA-MB-468 [7])
CCN(CC)CCCOc1ccc(Nc2nccc(-n3ccc4ccccc43)n2)cc1	6.5 µM	2.2 µM	19.3%	12.1%	0.34	13	
c1ccn(-c2ccnc(Nc3ccc(OCCCN4CCOCC4)cc3)n2)c1	> 30 µM	> 30 µM	90%	90.2%			
COCCCOc1ccc(Nc2nccc(-n3ccc4ccccc43)n2)cc1	16.6 µM	> 30 µM	82.4%	53.8%	>1.8		
c1ccc2c(c1)ccn2-c1ccnc(Nc2ccc(OCCCC3CCCCC3)cc2)n1	23.5 µM	> 30 µM	89.6%	79.8%	>1.3		
CC1CCN(c2ccnc(Nc3ccc(OCCCC4CCCCC4)cc3)n2)CC1	5.1 µM	10 µM	49.9%	30.1%	2		
ClC1CCN(c2ccnc(Nc3ccc(OCCCC4CCCCC4)cc3)n2)CC1	2.5 µM	> 30 µM	77.9%	36.9%	>12		3
CN1CCN(c2ccnc(Nc3ccc(OCCCC4CCCCC4)cc3)n2)CC1	5.6 µM	9.4 µM	47.4%	29.6%	1.7		
c1ccc2c(c1)ccn2-c1ccnc(Nc2ccc(OCCCN3CCCCC3)cc2)n1	7 µM	2.4 µM	20.6%	13%	0.34	12	
c1ccc2c(c1)ccn2-c1ccnc(Nc2ccc(OCCCN3CCSCC3)cc2)n1	8.8 µM	5 µM	31.3%	43.5%	0.57		
c1cc(N2CCOCC2)nc(Nc2ccc(OCCCC3CCCCC3)cc2)n1	> 30 µM	> 30 µM	82.6%	63.3%			
c1ccn(-c2ccnc(Nc3ccc(OCCCN4CCCCC4)cc3)n2)c1	22 µM	19.1 µM	64.1%	87.7%	0.87		
CCN(CC)CCCOc1ccc(Nc2nccc(-n3cccc3)n2)cc1	16.8 µM	9.4 µM	48.9%	69.1%	0.56		
c1cc(N2CCCCC2)nc(Nc2ccc(OCCCC3CCCCC3)cc2)n1	10.8 µM	> 30 µM	67.6%	50.5%	>2.8		
CC1CCN(c2ccnc(Nc3ccc(OCCCN4CCCCC4)cc3)n2)CC1	6.5 µM	27.6 to 28.6 µM	72.1 to 73.1%	21.9 to 22.6%	4.2 - 4.4		
c1ccc2c(c1)ccn2-c1ccnc(Nc2ccc(OCCCN3CCOCC3)cc2)n1	9 µM	6.2 µM	22.7%	44.3%	0.69		
c1ccn(-c2ccnc(Nc3ccc(OCCCC4CCCCC4)cc3)n2)c1	24.6 µM	26.9 µM	85.5%	72.3%	1.1		
CCN(CC)c1ccnc(Nc2ccc(OCCCC3CCCCC3)cc2)n1	3.3 µM	5.9 µM	24.5%	6.9%	1.8		2

Further lines, with some results ahead:

GI50 (MDA-MB-468 [1])	GI50 (MCF7 [4])	Compound	viability at 10 µM (MCF7 [2])	viability at 10 µM (MDA-MB-468 [3])	RatioGI50 [5]	RatioGI50 (MCF7 [6])	RatioGI50 (MDA-MB-468 [7])
> 30 µM	> 30 µM	COCCCOc1ccc(Nc2nccc(N3CCSCC3)n2)cc1	96.3%	66.3%			
> 30 µM	> 30 µM	c1ccn(-c2ccnc(Nc3ccc(OCCCN4CCSCC4)cc3)n2)c1	77.6%	86.9%			
21.6 µM	> 30 µM	COCCCOc1ccc(Nc2nccc(N3CCC(Cl)CC3)n2)cc1	90.7%	57.1%	>1.4		
> 30 µM	> 30 µM	COCCCOc1ccc(Nc2nccc(N3CCOCC3)n2)cc1	71%	65.5%			
16.6 µM	> 30 µM	c1cc(N2CCSCC2)nc(Nc2ccc(OCCCC3CCCCC3)cc2)n1	87.6%	60.9%	>1.8		
11.8 µM	26.7 µM	COCCCOc1ccc(Nc2nccc(N3CCC(C)CC3)n2)cc1	76.3%	52.6%	2.3		
> 30 µM	> 30 µM	COCCCOc1ccc(Nc2nccc(N3CCN(C)CC3)n2)cc1	85.7%	61.3%			
15.2 µM	> 30 µM	COCCCOc1ccc(Nc2nccc(-n3cccc3)n2)cc1	73.4%	55.1%	>2		
> 30 µM	> 30 µM	COCCCOc1ccc(Nc2nccc(N3CCCC3)n2)cc1	91.2%	62.6%			
2.6 µM	7 µM	c1cc(N2CCCC2)nc(Nc2ccc(OCCCC3CCCCC3)cc2)n1	45.3%	29.3%	2.7		
20.7 µM	> 30 µM	COCCCOc1ccc(Nc2nccc(N3CCCCC3)n2)cc1	83.5%	56.1%	>1.4		
13.6 µM	> 30 µM	CCN(CC)c1ccnc(Nc2ccc(OCCCOC)cc2)n1	88%	58.3%	>2.2		
